Measurements: paper PMC5761851, “Application of a phenotypic drug discovery strategy to identify biological and chemical starting points for inhibition of TSLP production in lung epithelial cells” (PLoS ONE, 2018)

Tests used:
Experiment in all cases: kinase selectivity panel
Assay type in all cases: biochemical
ASK1 = biological target: T1, ASK1 (Homo sapiens, UniProt Q99683); details: read-out: percentage of control activity (POC), ASK1
T1 construct: purchased Eurofins Pharma Discovery Services (KinaseProfiler; Cerep BioPrint panel)
T1 sequence (Q99683 1-1374): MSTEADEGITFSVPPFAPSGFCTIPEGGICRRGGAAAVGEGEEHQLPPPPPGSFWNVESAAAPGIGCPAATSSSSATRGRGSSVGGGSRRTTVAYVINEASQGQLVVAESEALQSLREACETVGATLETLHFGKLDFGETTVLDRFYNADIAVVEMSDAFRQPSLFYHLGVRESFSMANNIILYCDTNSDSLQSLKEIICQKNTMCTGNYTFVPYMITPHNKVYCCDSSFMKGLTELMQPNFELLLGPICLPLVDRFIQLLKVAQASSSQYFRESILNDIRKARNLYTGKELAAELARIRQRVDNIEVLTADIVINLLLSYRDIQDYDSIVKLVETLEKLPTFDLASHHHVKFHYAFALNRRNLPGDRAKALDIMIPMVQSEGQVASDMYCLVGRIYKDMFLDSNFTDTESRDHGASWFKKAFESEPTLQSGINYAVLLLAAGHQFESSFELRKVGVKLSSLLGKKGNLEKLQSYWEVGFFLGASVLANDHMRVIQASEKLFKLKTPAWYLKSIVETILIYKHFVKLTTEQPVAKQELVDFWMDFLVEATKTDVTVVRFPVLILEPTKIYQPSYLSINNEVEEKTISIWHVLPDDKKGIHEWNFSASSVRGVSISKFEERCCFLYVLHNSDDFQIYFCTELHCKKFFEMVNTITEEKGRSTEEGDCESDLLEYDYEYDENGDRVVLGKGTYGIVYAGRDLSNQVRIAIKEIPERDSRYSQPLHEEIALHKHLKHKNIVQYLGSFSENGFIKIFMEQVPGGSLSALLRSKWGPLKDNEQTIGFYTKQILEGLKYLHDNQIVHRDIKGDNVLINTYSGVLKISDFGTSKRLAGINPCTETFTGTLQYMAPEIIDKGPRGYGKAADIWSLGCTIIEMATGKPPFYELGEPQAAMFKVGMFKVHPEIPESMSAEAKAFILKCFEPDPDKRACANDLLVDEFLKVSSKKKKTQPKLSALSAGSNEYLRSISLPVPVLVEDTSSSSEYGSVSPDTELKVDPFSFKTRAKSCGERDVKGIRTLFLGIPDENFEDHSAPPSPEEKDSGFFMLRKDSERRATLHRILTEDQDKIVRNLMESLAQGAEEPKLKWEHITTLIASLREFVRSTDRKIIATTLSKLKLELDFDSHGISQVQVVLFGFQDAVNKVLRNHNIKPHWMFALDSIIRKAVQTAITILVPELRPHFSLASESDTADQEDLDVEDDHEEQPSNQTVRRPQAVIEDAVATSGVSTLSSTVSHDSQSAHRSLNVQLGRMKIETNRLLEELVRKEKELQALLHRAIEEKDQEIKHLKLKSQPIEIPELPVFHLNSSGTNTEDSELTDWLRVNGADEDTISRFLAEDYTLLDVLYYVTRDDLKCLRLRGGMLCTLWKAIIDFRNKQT
Outline: (§1)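 Single-point screen: 10 μM, duplicate, 125-kinase panel; follow-up IC50 from 9-point titration in duplicate for chosen hits.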

PKCε = biological target: T2, PKCε (Homo sapiens, UniProt Q02156); details: read-out: percentage of control activity (POC), PKCε
T2 construct: purchased Eurofins Pharma Discovery Services (KinaseProfiler; Cerep BioPrint panel)
T2 sequence (Q02156 1-737): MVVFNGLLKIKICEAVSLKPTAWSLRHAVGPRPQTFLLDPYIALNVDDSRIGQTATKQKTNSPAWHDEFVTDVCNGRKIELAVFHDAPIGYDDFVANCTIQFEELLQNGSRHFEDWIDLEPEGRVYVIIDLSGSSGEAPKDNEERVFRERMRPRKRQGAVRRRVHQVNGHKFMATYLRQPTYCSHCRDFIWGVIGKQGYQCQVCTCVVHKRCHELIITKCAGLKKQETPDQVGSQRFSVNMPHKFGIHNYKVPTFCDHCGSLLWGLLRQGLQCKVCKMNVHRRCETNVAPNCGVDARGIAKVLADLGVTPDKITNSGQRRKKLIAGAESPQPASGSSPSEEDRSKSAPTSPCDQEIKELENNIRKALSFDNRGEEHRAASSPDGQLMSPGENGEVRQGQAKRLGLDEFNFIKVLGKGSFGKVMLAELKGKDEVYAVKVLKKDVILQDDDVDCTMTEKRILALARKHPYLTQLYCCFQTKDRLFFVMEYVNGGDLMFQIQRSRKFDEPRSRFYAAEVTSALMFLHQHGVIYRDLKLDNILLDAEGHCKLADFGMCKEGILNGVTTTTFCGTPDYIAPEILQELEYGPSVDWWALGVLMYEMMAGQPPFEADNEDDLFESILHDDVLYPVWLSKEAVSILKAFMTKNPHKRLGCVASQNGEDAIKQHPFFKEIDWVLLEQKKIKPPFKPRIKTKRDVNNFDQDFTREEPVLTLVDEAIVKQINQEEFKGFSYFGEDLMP
Outline: as §1

EphA5 = biological target: T3, EphA5 (Homo sapiens, UniProt P54756); details: read-out: percentage of control activity (POC), EphA5
T3 construct: purchased Eurofins Pharma Discovery Services (KinaseProfiler; Cerep BioPrint panel)
Outline: as §1

PAK2 = biological target: T4, PAK2 (Homo sapiens, UniProt Q13177); details: read-out: percentage of control activity (POC), PAK2
T4 construct: purchased Eurofins Pharma Discovery Services (KinaseProfiler; Cerep BioPrint panel)
Outline: as §1

MLK1 = biological target: T5, MLK1 (Homo sapiens, UniProt P80192); details: read-out: percentage of control activity (POC), MLK1
T5 construct: purchased Eurofins Pharma Discovery Services (KinaseProfiler; Cerep BioPrint panel)
Outline: as §1

Pim-1 = biological target: T6, Pim-1 (Homo sapiens, UniProt P11309); details: read-out: percentage of control activity (POC), Pim-1
T6 construct: purchased Eurofins Pharma Discovery Services (KinaseProfiler; Cerep BioPrint panel)
Outline: as §1

PI3K (p110a/p85a) = biological target: T7, PI3K (p110a/p85a) (Homo sapiens, UniProt P42336); details: read-out: percentage of control activity (POC), PI3K (p110a/p85a)
T7 construct: purchased Eurofins Pharma Discovery Services (KinaseProfiler; Cerep BioPrint panel)
Outline: as §1

FGFR1 = biological target: T8, FGFR1 (Homo sapiens, UniProt P11362); details: read-out: percentage of control activity (POC), FGFR1
T8 construct: purchased Eurofins Pharma Discovery Services (KinaseProfiler; Cerep BioPrint panel)
Outline: as §1

PTK5 = biological target: T9, PTK5 (Homo sapiens, UniProt P42685); details: for remaining activity at 10 µM: read-out: percentage of control activity (POC), PTK5
T9 construct: purchased Eurofins Pharma Discovery Services (KinaseProfiler; Cerep BioPrint panel)
Outline: as §1

PDGFRβ = biological target: T10, PDGFRβ (Homo sapiens, UniProt P09619); details: read-out: percentage of control activity (POC), PDGFRβ
T10 construct: purchased Eurofins Pharma Discovery Services (KinaseProfiler; Cerep BioPrint panel)
Outline: as §1

T9 sequence (P42685 whole entry): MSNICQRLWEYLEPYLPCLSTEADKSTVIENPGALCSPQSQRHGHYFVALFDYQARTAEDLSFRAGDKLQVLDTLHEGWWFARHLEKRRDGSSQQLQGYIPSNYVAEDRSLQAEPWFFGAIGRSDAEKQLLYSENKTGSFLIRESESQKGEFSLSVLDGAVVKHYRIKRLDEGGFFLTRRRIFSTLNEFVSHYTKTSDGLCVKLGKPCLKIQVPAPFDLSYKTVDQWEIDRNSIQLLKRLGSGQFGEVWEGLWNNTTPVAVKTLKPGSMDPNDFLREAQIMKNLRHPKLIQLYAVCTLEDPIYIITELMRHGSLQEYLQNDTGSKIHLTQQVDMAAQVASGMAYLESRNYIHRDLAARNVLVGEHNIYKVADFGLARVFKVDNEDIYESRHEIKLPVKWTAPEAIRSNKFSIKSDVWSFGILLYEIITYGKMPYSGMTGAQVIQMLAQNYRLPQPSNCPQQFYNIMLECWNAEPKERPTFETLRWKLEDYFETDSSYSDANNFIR
T6 sequence (P11309 whole entry): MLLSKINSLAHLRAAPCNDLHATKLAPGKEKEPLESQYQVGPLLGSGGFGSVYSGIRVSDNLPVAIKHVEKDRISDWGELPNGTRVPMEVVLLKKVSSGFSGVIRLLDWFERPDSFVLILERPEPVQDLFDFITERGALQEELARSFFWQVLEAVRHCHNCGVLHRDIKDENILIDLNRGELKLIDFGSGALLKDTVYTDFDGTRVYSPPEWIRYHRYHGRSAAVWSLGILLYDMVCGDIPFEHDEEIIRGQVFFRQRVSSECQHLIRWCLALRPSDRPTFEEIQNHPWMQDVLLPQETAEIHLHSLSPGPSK
T4 sequence (Q13177 whole entry): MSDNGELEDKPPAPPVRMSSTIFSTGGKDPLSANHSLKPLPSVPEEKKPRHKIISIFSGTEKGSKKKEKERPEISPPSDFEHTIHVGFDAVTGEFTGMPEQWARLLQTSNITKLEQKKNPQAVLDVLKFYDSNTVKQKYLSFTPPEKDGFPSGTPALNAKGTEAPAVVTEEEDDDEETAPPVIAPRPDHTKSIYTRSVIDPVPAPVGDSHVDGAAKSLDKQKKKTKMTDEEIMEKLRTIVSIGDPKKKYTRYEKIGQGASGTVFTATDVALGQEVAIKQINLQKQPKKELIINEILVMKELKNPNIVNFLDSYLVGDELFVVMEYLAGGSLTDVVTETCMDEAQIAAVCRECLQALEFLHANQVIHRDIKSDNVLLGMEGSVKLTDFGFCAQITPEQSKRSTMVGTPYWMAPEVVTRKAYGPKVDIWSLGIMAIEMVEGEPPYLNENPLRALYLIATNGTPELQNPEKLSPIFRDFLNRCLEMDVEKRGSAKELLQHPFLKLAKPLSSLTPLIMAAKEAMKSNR
T10 sequence (P09619 33-1106): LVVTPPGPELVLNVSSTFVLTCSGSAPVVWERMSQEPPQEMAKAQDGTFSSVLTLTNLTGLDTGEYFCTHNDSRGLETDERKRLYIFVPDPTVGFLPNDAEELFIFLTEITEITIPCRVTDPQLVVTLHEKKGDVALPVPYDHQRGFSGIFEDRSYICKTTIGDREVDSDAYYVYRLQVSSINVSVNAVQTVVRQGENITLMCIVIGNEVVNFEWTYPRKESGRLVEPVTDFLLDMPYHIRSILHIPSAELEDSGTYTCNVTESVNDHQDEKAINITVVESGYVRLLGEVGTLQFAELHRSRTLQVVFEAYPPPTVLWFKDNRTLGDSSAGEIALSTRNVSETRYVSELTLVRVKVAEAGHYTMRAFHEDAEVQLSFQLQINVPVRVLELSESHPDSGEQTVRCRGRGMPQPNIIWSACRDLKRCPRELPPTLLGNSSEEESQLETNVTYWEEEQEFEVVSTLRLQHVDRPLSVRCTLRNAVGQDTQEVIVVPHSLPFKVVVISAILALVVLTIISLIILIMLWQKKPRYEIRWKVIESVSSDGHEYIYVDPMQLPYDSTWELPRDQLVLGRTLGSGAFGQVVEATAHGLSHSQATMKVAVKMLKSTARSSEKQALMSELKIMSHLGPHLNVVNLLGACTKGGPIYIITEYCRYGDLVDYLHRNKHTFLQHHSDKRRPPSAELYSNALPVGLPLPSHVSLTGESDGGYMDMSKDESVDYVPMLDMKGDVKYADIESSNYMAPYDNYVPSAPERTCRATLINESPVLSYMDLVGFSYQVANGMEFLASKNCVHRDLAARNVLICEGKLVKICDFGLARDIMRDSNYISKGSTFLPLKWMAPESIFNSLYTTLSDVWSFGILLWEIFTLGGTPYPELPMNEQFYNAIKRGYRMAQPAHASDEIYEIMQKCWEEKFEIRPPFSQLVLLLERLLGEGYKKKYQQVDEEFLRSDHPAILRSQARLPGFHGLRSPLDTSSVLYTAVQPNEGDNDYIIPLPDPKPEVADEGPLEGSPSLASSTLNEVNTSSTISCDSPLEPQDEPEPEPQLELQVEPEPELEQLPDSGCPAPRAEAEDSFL
T5 sequence (P80192 whole entry): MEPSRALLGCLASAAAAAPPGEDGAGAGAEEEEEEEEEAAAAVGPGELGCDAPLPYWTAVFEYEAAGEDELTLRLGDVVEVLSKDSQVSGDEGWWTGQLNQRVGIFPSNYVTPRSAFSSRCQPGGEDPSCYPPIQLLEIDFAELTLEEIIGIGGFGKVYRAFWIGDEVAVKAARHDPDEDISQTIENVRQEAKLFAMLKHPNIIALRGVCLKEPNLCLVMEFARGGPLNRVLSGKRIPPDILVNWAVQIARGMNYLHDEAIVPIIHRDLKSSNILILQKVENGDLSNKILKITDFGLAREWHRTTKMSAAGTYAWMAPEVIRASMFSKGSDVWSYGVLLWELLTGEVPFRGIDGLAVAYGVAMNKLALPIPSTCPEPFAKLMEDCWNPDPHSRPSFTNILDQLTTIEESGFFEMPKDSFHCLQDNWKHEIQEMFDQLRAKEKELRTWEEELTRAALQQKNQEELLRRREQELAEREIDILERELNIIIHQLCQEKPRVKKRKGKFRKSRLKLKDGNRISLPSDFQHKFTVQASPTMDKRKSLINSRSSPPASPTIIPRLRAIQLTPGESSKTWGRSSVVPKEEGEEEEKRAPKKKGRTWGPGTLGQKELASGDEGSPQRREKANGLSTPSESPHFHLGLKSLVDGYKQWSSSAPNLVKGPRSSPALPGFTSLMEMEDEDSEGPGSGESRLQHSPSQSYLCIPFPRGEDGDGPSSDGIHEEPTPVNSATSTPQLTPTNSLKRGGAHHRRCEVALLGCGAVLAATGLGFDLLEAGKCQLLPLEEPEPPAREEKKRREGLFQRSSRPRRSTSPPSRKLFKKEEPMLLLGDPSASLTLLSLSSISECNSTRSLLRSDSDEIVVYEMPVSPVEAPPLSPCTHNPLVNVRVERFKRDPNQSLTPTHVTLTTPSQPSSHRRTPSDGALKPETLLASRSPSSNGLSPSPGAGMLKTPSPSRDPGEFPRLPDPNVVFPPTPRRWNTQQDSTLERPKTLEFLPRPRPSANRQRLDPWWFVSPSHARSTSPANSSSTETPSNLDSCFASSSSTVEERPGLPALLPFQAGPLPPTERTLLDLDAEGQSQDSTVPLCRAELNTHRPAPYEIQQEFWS
T3 sequence (P54756 25-1037): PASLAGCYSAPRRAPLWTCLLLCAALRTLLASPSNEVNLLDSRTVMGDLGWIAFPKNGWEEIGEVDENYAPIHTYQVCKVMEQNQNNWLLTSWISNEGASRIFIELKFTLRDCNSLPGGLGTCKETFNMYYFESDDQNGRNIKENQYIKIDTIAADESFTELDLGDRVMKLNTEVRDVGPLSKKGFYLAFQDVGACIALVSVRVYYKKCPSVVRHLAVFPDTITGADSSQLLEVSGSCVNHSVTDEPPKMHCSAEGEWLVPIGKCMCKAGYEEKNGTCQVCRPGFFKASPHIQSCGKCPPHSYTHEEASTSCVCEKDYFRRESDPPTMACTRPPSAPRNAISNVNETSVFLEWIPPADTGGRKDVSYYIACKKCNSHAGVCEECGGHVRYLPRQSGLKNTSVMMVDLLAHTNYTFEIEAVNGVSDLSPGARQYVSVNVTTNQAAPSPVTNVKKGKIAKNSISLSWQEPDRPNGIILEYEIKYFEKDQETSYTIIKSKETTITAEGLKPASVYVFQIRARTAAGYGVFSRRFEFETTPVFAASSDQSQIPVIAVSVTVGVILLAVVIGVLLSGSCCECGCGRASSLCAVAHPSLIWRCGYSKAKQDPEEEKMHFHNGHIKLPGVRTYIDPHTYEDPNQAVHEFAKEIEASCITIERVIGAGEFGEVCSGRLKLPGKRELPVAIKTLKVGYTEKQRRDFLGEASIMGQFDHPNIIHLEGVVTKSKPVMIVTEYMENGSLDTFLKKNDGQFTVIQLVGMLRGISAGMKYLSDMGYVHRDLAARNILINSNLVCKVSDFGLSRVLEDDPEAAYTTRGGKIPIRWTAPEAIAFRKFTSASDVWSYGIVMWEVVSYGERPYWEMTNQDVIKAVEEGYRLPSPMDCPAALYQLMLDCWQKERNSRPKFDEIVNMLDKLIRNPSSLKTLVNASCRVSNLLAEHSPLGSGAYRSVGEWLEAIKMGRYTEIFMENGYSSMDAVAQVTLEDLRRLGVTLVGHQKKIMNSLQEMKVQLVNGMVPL

| SMILES | remaining activity at 10 µM (ASK1) | remaining activity at 10 µM (PKCε) | remaining activity at 10 µM (EphA5) | remaining activity at 10 µM (PAK2) | remaining activity at 10 µM (MLK1) | remaining activity at 10 µM (Pim-1) | remaining activity at 10 µM (PI3K (p110a/p85a)) | remaining activity at 10 µM (FGFR1) | remaining activity at 10 µM (PTK5) | remaining activity at 10 µM (PDGFRβ) | inhibition at 10 µM (PTK5) |
| --- | --- | --- | --- | --- | --- | --- | --- | --- | --- | --- | --- |
| CC(C)(C)N1CCC(c2cc(-c3ccc(F)cc3Cl)c3cc[n+]([O-])c(-c4c(Cl)cccc4Cl)c3n2)CC1 [compound 2] | 100% | 94% | 95% | 111% | 99% | 86% | 97% | 80% | 97% | 70% |  |
| Cc1ccc(C(=O)NCC2CC2)cc1-c1ccc2c(c1)NC(=O)C21CCCC1 [compound 3] | 97% | 102% | 99% | 89% | 97% | 79% | 94% | 95% | 56% | 61% |  |
| Cn1cc(-c2cccc(-c3nc(C(=O)NC4C5CC6CC4CC(O)(C6)C5)c(N)nc3N)c2)cn1 (stereo not drawn) [compound 4] | 92% | 87% | 93% | 87% | 79% | 68% | 60% | 86% | 54% | 63% |  |
| CS(=O)(=O)N1CCN(c2ccc(Nc3ncc(C(N)=O)c(NC4CC4)n3)cc2)CC1 [compound 5] | 0% | 54% | 56% | 24% | -1% | 81% | 96% | 3% | 31% | 16% |  |
| COc1c(NC(=O)c2ccc(C)c(-c3nnc4c(NCC(C)(C)C)nccn34)c2)cc(C(C)(C)C)cc1NS(C)(=O)=O [compound 7, reference compound] | 87% | 100% | 65% | 96% | 104% | 96% | 95% | 109% | 4% | 82% | 96% |
